Values after ≈ are worked out from the molar mass of the structure shown.
Assays:
[1] = tested on: Citrobacter freundii; assay: Antibacterial activity against beta-lactamase producing Citrobacter freundii 43864 after 18 hrs by agar dilution assay; assay type: functional; details: Citrobacter freundii, 43864, 18 h
[2] = tested on: Pseudomonas aeruginosa; assay: Antibacterial activity against BL positive Pseudomonas aeruginosa 27853 after 18 hrs by agar dilution assay; assay type: functional; details: Pseudomonas aeruginosa, 27853, 18 h
[3] = tested on: Klebsiella aerogenes; assay: Antibacterial activity against beta-lactamase producing Enterobacter aerogenes 45102 after 18 hrs by agar dilution assay; assay type: functional; details: Klebsiella aerogenes, 45102, 18 h
[4] = tested on: Klebsiella pneumoniae; assay: Antibacterial activity against ESBL positive Klebsiella pneumoniae 09-25 after 18 hrs by agar dilution assay; assay type: functional; details: 09-25, 18 h
[5] = tested on: Klebsiella pneumoniae; assay: Antibacterial activity against ESBL positive Klebsiella pneumoniae 700603 after 18 hrs by agar dilution assay; assay type: functional; details: Klebsiella pneumoniae, 700603, 18 h
[6] = tested on: Providencia rettgeri; assay: Antibacterial activity against Providencia rettgeri 31052 after 18 hrs by agar dilution assay; assay type: functional; details: Providencia rettgeri, 31052, 18 h
[7] = tested on: Proteus mirabilis; assay: Antibacterial activity against beta-lactamase producing Proteus mirabilis 09-1 after 18 hrs by agar dilution assay; assay type: functional; details: 09-1, 18 h
[8] = tested on: Klebsiella pneumoniae; assay: Antibacterial activity against NDM-1 positive Klebsiella pneumoniae BAA-2146 after 18 hrs by agar dilution assay; assay type: functional; details: BAA-2146, 18 h
[9] = tested on: Klebsiella pneumoniae; assay: Antibacterial activity against ESBL negative Klebsiella pneumoniae 09-8 after 18 hrs by agar dilution assay; assay type: functional; details: 09-8, 18 h
[10] = tested on: Pseudomonas aeruginosa; assay: Antibacterial activity against BL positive Pseudomonas aeruginosa 09-14 after 18 hrs by agar dilution assay; assay type: functional; details: 09-14, 18 h
[11] = tested on: Klebsiella pneumoniae; assay: Antibacterial activity against ESBL negative Klebsiella pneumoniae 7 after 18 hrs by agar dilution assay; assay type: functional; details: Klebsiella pneumoniae, 7, 18 h
[12] = tested on: Escherichia coli; assay: Antibacterial activity against ESBL positive Escherichia coli 09-1 after 18 hrs by agar dilution assay; assay type: functional; details: 09-1, 18 h
[13] = tested on: Escherichia coli; assay: Antibacterial activity against ESBL negative Escherichia coli 09-20 after 18 hrs by agar dilution assay; assay type: functional; details: 09-20, 18 h
[14] = tested on: Salmonella typhi; assay: Antibacterial activity against beta-lactamase producing Salmonella typhi H901 after 18 hrs by agar dilution assay; assay type: functional, Salmonella enterica subsp. enterica serovar Typhi; details: Salmonella enterica, H901, 18 h
[15] = tested on: Escherichia coli; assay: Antibacterial activity against ESBL negative Escherichia coli 1515 after 18 hrs by agar dilution assay; assay type: functional; details: Escherichia coli, 1515, 18 h
[16] = tested on: Morganella morganii; assay: Antibacterial activity against beta-lactamase producing Morganella morganii 25830 after 18 hrs by agar dilution assay; assay type: functional; details: Morganella morganii, 25830, 18 h
[17] = tested on: Proteus vulgaris; assay: Antibacterial activity against beta-lactamase producing Proteus vulgaris 29905 after 18 hrs by agar dilution assay; assay type: functional; details: Proteus vulgaris, 29905, 18 h
[18] = tested on: Pseudomonas aeruginosa; assay: Antibacterial activity against BL positive Pseudomonas aeruginosa PAO1 after 18 hrs by agar dilution assay; assay type: functional; details: PAO1, 18 h
[19] = tested on: Serratia marcescens; assay: Antibacterial activity against beta-lactamase producing Serratia marcescens 41002 after 18 hrs by agar dilution assay; assay type: functional; details: Serratia marcescens, 41002, 18 h
[20] = tested on: Escherichia coli; assay: Antibacterial activity against ESBL negative Escherichia coli 25922 after 18 hrs by agar dilution assay; assay type: functional; details: Escherichia coli, 25922, 18 h
[21] = tested on: Enterobacter cloacae; assay: Antibacterial activity against beta-lactamase producing Enterobacter cloacae 45301 after 18 hrs by agar dilution assay; assay type: functional; details: Enterobacter cloacae, 45301, 18 h
[22] = tested on: Escherichia coli; assay: Antibacterial activity against acrAB and acrEF knock-out Escherichia coli BL21 by microbroth dilution assay; assay type: functional
[23] = tested on: Escherichia coli; assay: Antibacterial activity against Escherichia coli BL21 by microbroth dilution assay; assay type: functional
[24] = tested on: Escherichia coli; assay: Selectivity ratio of MIC for Escherichia coli BL21 to MIC for acrAB and acrEF knock-out Escherichia coli BL21; assay type: functional

| Compound | MIC [1] [µg/mL] | MIC [2] [µg/mL] | MIC [3] [µg/mL] | MIC [4] [µg/mL] | MIC [5] [µg/mL] | MIC [6] [µg/mL] | MIC [7] [µg/mL] | MIC [8] [µg/mL] | MIC [9] [µg/mL] | MIC [10] [µg/mL] | MIC [11] [µg/mL] | MIC [12] [µg/mL] | MIC [13] [µg/mL] | MIC [14] [µg/mL] | MIC [15] [µg/mL] | MIC [16] [µg/mL] | MIC [17] [µg/mL] | MIC [18] [µg/mL] | MIC [19] [µg/mL] | MIC [20] [µg/mL] | other results |
| --- | --- | --- | --- | --- | --- | --- | --- | --- | --- | --- | --- | --- | --- | --- | --- | --- | --- | --- | --- | --- | --- |
| C[C@H]1[C@H](NC(=O)/C(=N\OCc2cn(C)nn2)c2csc(N)n2)C(=O)N1S(=O)(=O)O (relative stereo) | 4 (≈ 9 µM) | > 128 | 2 (≈ 4.5 µM) | > 128 | > 128 | 0.125 (≈ 0.281 µM) | 1 (≈ 2.25 µM) | > 128 | > 128 | > 128 | 1 (≈ 2.25 µM) | 4 (≈ 9 µM) | > 128 | > 128 | 4 (≈ 9 µM) | 0.5 (≈ 1.12 µM) | 0.5 (≈ 1.12 µM) | > 128 | 2 (≈ 4.5 µM) | 4 (≈ 9 µM) | MIC [21]: 1 µg/mL (≈ 2.25 µM) |
| CC1(C)[C@H](NC(=O)/C(=N\OCc2ccc(C(=O)O)cc2)c2csc(N)n2)C(=O)N1S(=O)(=O)O | 2 (≈ 4.02 µM) | > 64 | 8 (≈ 16.1 µM) | 8 (≈ 16.1 µM) | > 64 | ≤ 0.03 | 8 (≈ 16.1 µM) | 32 (≈ 64.3 µM) | 2 (≈ 4.02 µM) | > 64 | 2 (≈ 4.02 µM) | 4 (≈ 8.04 µM) | 2 (≈ 4.02 µM) | 32 (≈ 64.3 µM) | 8 (≈ 16.1 µM) | > 64 | 0.06 (≈ 0.121 µM) | > 64 | 4 (≈ 8.04 µM) | 4 (≈ 8.04 µM) | MIC [21]: 2 µg/mL (≈ 4.02 µM) |
| CCN(CC)CC.C[C@H]1[C@H](NC(=O)/C(=N\OCc2ccc(C(=O)N/N=C/c3ncc[nH]3)cc2)c2csc(N)n2)C(=O)N1S(=O)(=O)O | 2 | 32 | 2 | > 64 | 64 | 0.06 | 2 | > 64 | 8 | 32 | 8 | 64 | 64 | 1 | 8 | 0.25 | 0.125 | 32 | 4 | 4 | MIC [22]: ≤ 0.06 µg/mL; MIC [23]: 1 µg/mL; MIC [21]: 1 µg/mL |
| CC1(C)[C@H](NC(=O)/C(=N\OCc2cn(CC(=O)O)nn2)c2csc(N)n2)C(=O)N1S(=O)(=O)O | 2 (≈ 3.98 µM) | > 64 | 4 (≈ 7.96 µM) | 32 (≈ 63.7 µM) | > 64 | ≤ 0.03 | 2 (≈ 3.98 µM) | > 64 | 1 (≈ 1.99 µM) | > 64 | 1 (≈ 1.99 µM) | 2 (≈ 3.98 µM) | 8 (≈ 15.9 µM) | > 64 | 32 (≈ 63.7 µM) | > 64 | 0.125 (≈ 0.249 µM) | > 64 | 2 (≈ 3.98 µM) | 2 (≈ 3.98 µM) | MIC [21]: 1 µg/mL (≈ 1.99 µM) |
| CCN(CC)CC.C[C@H]1[C@H](NC(=O)/C(=N\OCc2ccc(C(=O)N/N=C/c3cccs3)cc2)c2csc(N)n2)C(=O)N1S(=O)(=O)O (relative stereo) | 2 | 64 | 2 | > 64 | 64 | ≤ 0.03 | 4 | > 64 | 8 | 32 | 2 | 64 | 64 | 1 | 4 | 1 | 0.06 | 64 | 2 | 4 | Selectivity ratio [24]: >16; MIC [22]: ≤ 0.06 µg/mL; MIC [23]: 2 µg/mL; MIC [21]: 1 µg/mL |
| CCN(CC)CC.C[C@H]1[C@H](NC(=O)/C(=N\OCc2ccc(C(=O)N/N=C/c3ccc(O)cc3O)cc2)c2csc(N)n2)C(=O)N1S(=O)(=O)O (relative stereo) | 8 | 16 | 4 | > 64 | 64 | ≤ 0.03 | 1 | > 64 | 32 | 16 | 2 | 64 | 64 | 8 | 0.25 | 0.12 | 0.5 | 16 | 4 | 8 | Selectivity ratio [24]: >16; MIC [21]: 4 µg/mL |
